Test results taken from DBAASP.
In brackets after ≈: the same amount, converted by molar mass.

How the values were obtained:
Assay in all cases: ≥ marks a high value that may be exact or a test limit, other limits are often not marked, values filed in µg/mL are converted to µM
[1] = tested on: Pseudomonas aeruginosa ATCC 15442
[2] = tested on: Listeria monocytogenes ATCC 7644
[3] = tested on: Listeria monocytogenes ATCC 19114
[4] = tested on: Enterococcus faecalis ATCC 29212
[5] = tested on: Listeria monocytogenes
[6] = tested on: Listeria monocytogenes ATCC 19115
[7] = tested on: Staphylococcus epidermidis ATCC 35984
[8] = tested on: Listeria monocytogenes NCTC 18890
[9] = tested on: Staphylococcus aureus ATCC 25923
[10] = tested on: Staphylococcus aureus ATCC 29213
[11] = tested on: Staphylococcus aureus ATCC 6538
[12] = tested on: Bacillus licheniformis ATCC 14580
[13] = tested on: Escherichia coli ATCC 25922
[14] = tested on: Pseudomonas aeruginosa PAO1
[15] = tested on: Bacillus subtilis ATCC 6051
[16] = tested on: Enterococcus faecium 5F-10
[17] = tested on: Proteus mirabilis ATCC 35659
[18] = tested on: Salmonella enterica ATCC H9812
[19] = tested on: Bacillus cereus ATCC 14579
[20] = tested on: Enterococcus faecalis 1F-1
[21] = tested on: Bacillus amyloliquefaciens ATCC 23842
[22] = tested on: Escherichia coli ATCC 10536
[23] = tested on: Staphylococcus aureus ATCC 9144
[24] = tested on: Escherichia coli DH5alpha
[25] = tested on: Bacillus subtilis ATCC 6633
[26] = tested on: Klebsiella pneumoniae ATCC 13883
[27] = tested on: Staphylococcus aureus JE2
[28] = tested on: Micrococcus luteus ATCC 49732
[29] = tested on: Salmonella typhimurium DA6192
[30] = tested on: Klebsiella pneumoniae NCTC 5055
[31] = tested on: Pseudomonas aeruginosa ATCC 27853
[32] = tested on: Escherichia coli ATCC 15597
[33] = tested on: Legionella pneumophila Lens
[34] = tested on: Salmonella typhimurium SL1344
[35] = tested on: Escherichia coli J2210
[36] = tested on: Salmonella enterica subsp. enterica serovar Enteritidis MH91989
[37] = tested on: Escherichia coli JJ2487
[38] = tested on: Escherichia coli MC1061
[39] = tested on: Escherichia coli O157:H7
[40] = tested on: Escherichia coli C25

CC(C)C[C@H](NC(=O)[C@H](C)NC(=O)[C@H](Cc1cnc[nH]1)NC(=O)[C@H](Cc1cnc[nH]1)NC(=O)CNC(=O)[C@H](CC(C)C)NC(=O)[C@H](Cc1cnc[nH]1)NC(=O)[C@H](CO)NC(=O)[C@H](C)N)C(=O)N[C@@H](CC(=O)O)C(=O)N[C@@H](Cc1cnc[nH]1)C(=O)N[C@@H](CC(C)C)C(=O)N[C@@H](CC(C)C)C(=O)N[C@@H](CCCCN)C(=O)O [ASHLGHHALDHLLK]
MIC [1]: ≥ 8070 µM
MIC [2]: ≥ 3230 µM
MIC [3]: ≥ 3230 µM
MIC [4]: 8070 µM (≈ 12500 µg/mL)
MIC [5]: ≥ 3230 µM
MIC [6]: ≥ 3230 µM
MIC [7]: ≥ 8070 µM
MIC [8]: ≥ 3230 µM
MIC [9]: 8070 µM (≈ 12500 µg/mL)
MIC [10]: 8070 µM (≈ 12500 µg/mL)
MIC [11]: 8070 µM (≈ 12500 µg/mL)

CC(C)C[C@H](NC(=O)[C@H](CC(C)C)NC(=O)[C@H](CCC(=O)O)NC(=O)[C@@H](N)CC(=O)O)C(=O)N[C@@H](CO)C(=O)N[C@@H](CCCN=C(N)N)C(=O)N[C@H](C(=O)O)C(C)C [DELLSRV]
MIC [12]: ≥ 154 µM
MIC [13]: 38.5 µM (≈ 32 µg/mL)
MIC [14]: > 154 µM
MIC [15]: ≥ 154 µM
MIC [16]: ≥ 154 µM
MIC [17]: ≥ 154 µM
MIC [18]: ≥ 77 µM
MIC [19]: ≥ 154 µM
MIC [20]: ≥ 154 µM
MIC [10]: > 154 µM
MIC [21]: ≥ 154 µM

CC[C@H](C)[C@H](NC(=O)CN)C(=O)NCC(=O)N[C@@H](C)C(=O)N[C@H](C(=O)N[C@@H](CC(C)C)C(=O)N[C@@H](CCCCN)C(=O)N[C@H](C(=O)N[C@@H](CC(C)C)C(=O)N[C@H](C(=O)N[C@H](C(=O)NCC(=O)N[C@@H](CC(C)C)C(=O)N1CCC[C@H]1C(=O)N[C@@H](C)C(=O)N[C@@H](C)C(=O)N[C@H](C(=O)N[C@@H](CO)C(=O)N[C@@H](Cc1c[nH]c2ccccc12)C(=O)N[C@H](C(=O)N[C@@H](CCCCN)C(=O)N[C@@H](CCCN=C(N)N)C(=O)N[C@@H](CCCCN)C(=O)N[C@@H](CCCN=C(N)N)C(=O)N[C@@H](CCC(N)=O)C(=O)N[C@@H](CCC(N)=O)C(N)=O)[C@@H](C)CC)[C@@H](C)CC)[C@@H](C)O)[C@@H](C)O)C(C)C)C(C)C [GIGAVLKVLTTGLPAAISWIKRKRQQ]
MIC [22]: 4.1 µM (≈ 11.5 µg/mL)
MIC [23]: 4.2 µM (≈ 11.8 µg/mL)
MIC [24]: 4.2 µM (≈ 11.8 µg/mL)
MIC [25]: 3.9 µM (≈ 10.9 µg/mL)

CC(C)C[C@H](NC(=O)[C@H](CC(C)C)NC(=O)[C@H](CCCCN)NC(=O)[C@H](CC(C)C)NC(=O)CNC(=O)[C@H](CC(C)C)NC(=O)[C@H](CCCCN)NC(=O)[C@H](CC(C)C)NC(=O)[C@H](CC(C)C)NC(=O)[C@H](CC(C)C)NC(=O)[C@H](CCCCN)NC(=O)[C@H](CC(C)C)NC(=O)CN)C(N)=O [GLKLLLKLGLKLL]
MIC [13]: > 25 µM
MIC [26]: 25 µM (≈ 35.5 µg/mL)
MIC [14]: > 25 µM
MIC [27]: 1.56 µM (≈ 2.22 µg/mL)

CC[C@H](C)[C@H](N)C(=O)N[C@H](C(=O)N[C@@H](CCCCN)C(=O)N[C@@H](CCC(N)=O)C(=O)N[C@H](C(=O)N[C@H](C(=O)N[C@@H](CCCCN)C(=O)N[C@@H](CCC(N)=O)C(=O)N[C@@H](CC(C)C)C(=O)N[C@@H](CC(N)=O)C(=O)N[C@@H](CCCN=C(N)N)C(=O)N[C@@H](CCC(N)=O)C(=O)N[C@H](C(=O)N[C@@H](CCCCN)C(=O)N[C@H](C(=O)N[C@@H](CCC(N)=O)C(=O)N[C@@H](CO)C(=O)N[C@@H](CCCCN)C(=O)O)[C@@H](C)CC)[C@@H](C)O)[C@@H](C)O)[C@@H](C)CC)[C@@H](C)O [ITKQITKQLNRQTKIQSK]
MIC [28]: ≥ 100 µM
MIC [29]: ≥ 100 µM
MIC [30]: ≥ 100 µM
MIC [31]: > 100 µM
MIC [25]: ≥ 100 µM
MIC [11]: > 100 µM
MIC [32]: ≥ 100 µM

CC[C@H](C)[C@H](NC(=O)[C@H](CC(C)C)NC(=O)[C@H](CC(=O)O)NC(=O)[C@@H](NC(=O)[C@@H](NC(=O)[C@H](Cc1ccccc1)NC(=O)[C@H](CCC(N)=O)NC(=O)[C@@H](N)CCSC)[C@@H](C)CC)[C@@H](C)O)C(=O)N[C@@H](CCCCN)C(=O)N[C@@H](CCCCN)C(=O)N[C@@H](C)C(=O)N[C@H](C(=O)N[C@@H](CC(=O)O)C(=O)N[C@H](C(=O)N[C@H](C(=O)N[C@@H](CCCCN)C(=O)NCC(=O)N[C@@H](CC(C)C)C(=O)N[C@@H](Cc1ccccc1)C(=O)NCC(=O)N[C@@H](CC(N)=O)C(=O)N[C@@H](CCCCN)C(=O)O)[C@@H](C)CC)C(C)C)C(C)C [MQFITDLIKKAVDVIKGLFGNK]
MIC [33]: 1.26 µM (≈ 3.12 µg/mL)

CC[C@H](C)[C@H](NC(=O)[C@H](CCCN=C(N)N)NC(=O)[C@H](CCCN=C(N)N)NC(=O)[C@@H]1CCCN1C(=O)[C@@H]1CCCN1C(=O)[C@H](CCCN=C(N)N)NC(=O)[C@@H]1CCCN1C(=O)[C@H](CCCN=C(N)N)NC(=O)[C@@H]1CCCN1C(=O)[C@H](CCCCN)NC(=O)[C@H](Cc1ccc(O)cc1)NC(=O)[C@@H]1CCCN1C(=O)[C@H](CCCCN)NC(=O)[C@H](CCCCN)NC(=O)[C@H](CC(=O)O)NC(=O)[C@@H](N)C(C)C)C(=O)N[C@@H](Cc1ccc(O)cc1)C(=O)N[C@@H](CC(N)=O)C(=O)N[C@@H](CCCN=C(N)N)C(N)=O [VDKKPYKPRPRPPRRIYNR]
MIC [34]: 0.172 µM (≈ 0.42 µg/mL)
MIC [35]: 0.0821 µM (≈ 0.2 µg/mL)
MIC [36]: 0.172 µM (≈ 0.42 µg/mL)
MIC [37]: 0.123 µM (≈ 0.3 µg/mL)
MIC [38]: 0.0616 µM (≈ 0.15 µg/mL)
MIC [39]: 0.644 µM (≈ 1.57 µg/mL)

CC[C@H](C)[C@H](NC(=O)CNC(=O)[C@H](CCCN=C(N)N)NC(=O)[C@H](Cc1ccc(O)cc1)NC(=O)[C@@H](NC(=O)[C@H](CCCN=C(N)N)NC(=O)[C@H](Cc1ccccc1)NC(=O)[C@@H](N)Cc1c[nH]c2ccccc12)C(C)C)C(=O)N[C@@H](Cc1ccc(O)cc1)C(=O)N[C@@H](CCCN=C(N)N)C(=O)N[C@@H](CCCN=C(N)N)C(=O)N[C@@H](CCCN=C(N)N)C(N)=O [WFRVYRGIYRRR]
MIC [40]: ≥ 72 µM
MIC [9]: 72 µM (≈ 124 µg/mL)
